Source: patent publication US20240140986A1, “SYNTHETIC URSOLIC ACID DERIVATIVES AND METHODS OF USE THEREOF” (REATA PHARMACEUTICALS, INC., priority 2021, published 2024)

Legend:
[1] = test system: IFNγ-induced NO production in RAW 264.7 cells; test: Nitric Oxide Suppression Assay (IFNγ-induced NO, Griess nitrite readout); assay type: cell-based, mouse; conditions: for IC50: Mus musculus, RAW264.7, Table 2, RAW 264.7 cells, 2 h pretreatment, 20 ng/mL interferon gamma 24 h, read-out: Avg NO IC50 (nM) (Mean ± SD); for Avg NO IC50 Relative to RTA402 (fold): Table 2, ratio to RTA402
Method in brief: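 Nitrite, a surrogate for NO, was measured by Griess reagent (525 nm) and quantified from standards by linear regression, expressed as percent of DMSO plus IFNγ control to give IC50. RAW 264.7 cells had 2 h compound pretreatment, then 24 h with 20 ng/mL IFNγ; WST-1 checked viability.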

[2] = test system: Nrf2 / ARE-dependent luciferase in AREc32 reporter cell line; test: AREc32 luciferase reporter activation (Nrf2 induction); assay type: cell-based, human; conditions: Table 2; for EC (2-fold): Homo sapiens, Arec32, concentration increasing luminescence 2-fold above vehicle, 19 h treatment, read-out: Avg AREc32 EC2X (nM) (Mean ± SD); for Relative Avg AREc32 EC2X Relative to RTA402 (fold): ratio to RTA402
Method in brief: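 EC2X is the concentration raising luminescence 2-fold above DMSO-treated cells, from a nonlinear-regression dose–response fit. Compounds (0.03–1000 nM) were applied for nineteen hours, starting one day after seeding 20,000 reporter cells per well. Luciferase was read with One-Glo reagent.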

Row | SMILES | IC50 [1] | Avg NO IC50 Relative to RTA402 (fold) [1] | EC (2-fold) [2] | Relative Avg AREc32 EC2X Relative to RTA402 (fold) [2]
1 | C[C@@H]1[C@H]2[C@H]3C(=O)C=C4[C@@]5(C)C=C(C#N)C(=O)C(C)(C)[C@@H]5CC[C@@]4(C)[C@]3(C)CC[C@@]2(C(=O)NC2CC2)CC[C@H]1C [Compound T86] | 28.5 ± 6.5 nM | 7.09 ± 1.54 fold | 24.8 ± 6.4 nM | 2.12 ± 0.16 fold
2 | C[C@@H]1[C@H]2[C@H]3C(=O)C=C4[C@@]5(C)C=C(C#N)C(=O)C(C)(C)[C@@H]5CC[C@@]4(C)[C@]3(C)CC[C@@]2(C(=O)NCC(F)F)CC[C@H]1C [Compound T87] | 26.1 ± 7.6 nM | 6.55 ± 2.23 fold | 23.6 ± 0.9 nM | 2.0 ± 0.1 fold
3 | COC(=O)C[C@]12CC[C@@H](C)[C@H](C)[C@H]1[C@H]1C(=O)C=C3[C@@]4(C)C=C(C#N)C(=O)C(C)(C)[C@@H]4CC[C@@]3(C)[C@]1(C)CC2 [Compound T88] | 12.9 ± 5.1 nM | 6.48 ± 0.96 fold | 10.7 ± 3.2 nM | 1.03 ± 0.33 fold
4 | C[C@@H]1[C@H]2[C@H]3C(=O)C=C4[C@@]5(C)C=C(C#N)C(=O)C(C)(C)[C@@H]5CC[C@@]4(C)[C@]3(C)CC[C@@]2(CC(=O)O)CC[C@H]1C [Compound T89] | 14.6 ± 2.2 nM | 8.03 ± 3.23 fold | 3.62 ± 1.73 nM | 0.345 ± 0.161 fold
5 | C[C@@H]1[C@H]2[C@H]3C(=O)C=C4[C@@]5(C)C=C(C#N)C(=O)C(C)(C)[C@@H]5CC[C@@]4(C)[C@]3(C)CC[C@@]2(CC(N)=O)CC[C@H]1C [Compound T90] | 8.74 ± 2.77 nM | 4.60 ± 2.34 fold | 3.71 ± 0.99 nM | 0.455 ± 0.131 fold
6 | CNC(=O)C[C@]12CC[C@@H](C)[C@H](C)[C@H]1[C@H]1C(=O)C=C3[C@@]4(C)C=C(C#N)C(=O)C(C)(C)[C@@H]4CC[C@@]3(C)[C@]1(C)CC2 [Compound T91] | 4.69 ± 1.87 nM | 2.44 ± 1.39 fold | 2.96 ± 0.77 nM | 0.359 ± 0.078 fold
7 | C[C@@H]1[C@H]2[C@H]3C(=O)C=C4[C@@]5(C)C=C(C#N)C(=O)C(C)(C)[C@@H]5CC[C@@]4(C)[C@]3(C)CC[C@@]2(CC(=O)NC2CC2)CC[C@H]1C [Compound T92] | 5.97 ± 2.71 nM | 3.68 ± 1.63 fold | 4.33 ± 0.75 nM | 0.555 ± 0.181 fold
8 | C[C@@H]1[C@H]2[C@H]3C(=O)C=C4[C@@]5(C)C=C(C#N)C(=O)C(C)(C)[C@@H]5CC[C@@]4(C)[C@]3(C)CC[C@@]2(CC(=O)N2CCC2)CC[C@H]1C [Compound T93] | 5.69 ± 1.93 nM | 3.06 ± 1.70 fold | 4.24 ± 0.66 nM | 0.525 ± 0.129 fold
9 | Cc1noc(C[C@]23CC[C@@H](C)[C@H](C)[C@H]2[C@H]2C(=O)C=C4[C@@]5(C)C=C(C#N)C(=O)C(C)(C)[C@@H]5CC[C@@]4(C)[C@]2(C)CC3)n1 [Compound T96] | 13.3 ± 3.7 nM | 7.08 ± 3.49 fold | 10.6 ± 0.7 nM | 1.32 ± 0.21 fold
10 | C[C@@H]1[C@H]2[C@H]3C(=O)C=C4[C@@]5(C)C6O[C@@]6(C#N)C(=O)C(C)(C)[C@@H]5CC[C@@]4(C)[C@]3(C)CC[C@@]2(CNC(=O)C2CC2)CC[C@H]1C (stereo partly shown) [Compound T98] | 15.2 ± 4.3 nM | 4.45 ± 1.25 fold | 6.85 ± 0.51 nM | 0.574 ± 0.052 fold
11 | Cc1noc([C@]23CC[C@@H](C)[C@H](C)[C@H]2[C@H]2C(=O)C=C4[C@@]5(C)C6O[C@@]6(C#N)C(=O)C(C)(C)[C@@H]5CC[C@@]4(C)[C@]2(C)CC3)n1 (stereo partly shown) [Compound T99] | 14.8 ± 4.7 nM | 5.92 ± 0.69 fold | 10.4 ± 0.8 nM | 0.864 ± 0.046 fold
12 | C[C@@H]1[C@H]2[C@H]3C(=O)C=C4[C@@]5(C)C6O[C@@]6(C#N)C(=O)C(C)(C)[C@@H]5CC[C@@]4(C)[C@]3(C)CC[C@@]2(NC(=O)C(C)(F)F)CC[C@H]1C (stereo partly shown) [Compound T100] | 60.6 ± 0.9 nM | 28.1 ± 9.62 fold | 29.4 ± 3.69 nM | 2.87 ± 0.59 fold
13 | COC(=O)[C@]12CC[C@@H](C)[C@H](C)[C@H]1[C@H]1C(=O)C[C@@H]3[C@@]4(C)C=C(C#N)C(=O)C(C)(C)[C@@H]4CC[C@@]3(C)[C@]1(C)CC2 [Compound T101] | 102 ± 15 nM | 67.7 ± 3.62 fold | 142 ± 29 nM | 15.8 ± 2.1 fold
14 | C[C@@H]1[C@H]2[C@H]3[C@H]4C[C@@H]5[C@@]6(C)C=C(C#N)C(=O)C(C)(C)[C@@H]6CC[C@@]5(C)[C@]3(C)CC[C@]2(CC[C@H]1C)C(=O)O4 [Compound T102] | 108 ± 19 nM | 36.5 ± 16.9 fold | 338 ± 11 nM | 31.2 ± 5.3 fold
15 | CCNC(=O)CC[C@]12CC[C@@H](C)[C@H](C)[C@H]1[C@H]1C(=O)C[C@@H]3[C@@]4(C)C=C(C#N)C(=O)C(C)(C)[C@@H]4CC[C@@]3(C)[C@]1(C)CC2 [Compound T103] | 22.1 ± 4.2 nM | 14.60 ± 0.59 fold | 43.1 ± 10.4 nM | 4.52 ± 0.90 fold
16 | CNC(=O)CC[C@]12CC[C@@H](C)[C@H](C)[C@H]1[C@H]1C(=O)C[C@@H]3[C@@]4(C)C=C(C#N)C(=O)C(C)(C)[C@@H]4CC[C@@]3(C)[C@]1(C)CC2 [Compound T104] | 19.1 ± 4.9 nM | 12.6 ± 1.9 fold | 29.5 ± 2.5 nM | 3.15 ± 0.64 fold
17 | C[C@@H]1[C@H]2[C@H]3C(=O)C[C@@H]4[C@@]5(C)C=C(C#N)C(=O)C(C)(C)[C@@H]5CC[C@@]4(C)[C@]3(C)CC[C@@]2(CCC(=O)N2CCC2)CC[C@H]1C [Compound T105] | 52.4 ± 13.8 nM | 36.7 ± 17^ fold | 103 ± 37 nM | 10.7 ± 3.3 fold
18 | C[C@@H]1[C@H]2[C@H]3C(=O)C[C@@H]4[C@@]5(C)C=C(C#N)C(=O)C(C)(C)[C@@H]5CC[C@@]4(C)[C@]3(C)CC[C@@]2(CNC(=O)OC(C)(C)C)CC[C@H]1C [Compound T106] | 57.4 ± 15.7 nM | 37.4 ± 3.76 fold | 265 ± 21 nM | 28.2 ± 4.5 fold
19 | CC(=N)NOC(=O)[C@]12CC[C@@H](C)[C@H](C)[C@H]1[C@H]1C(=O)C=C3[C@@]4(C)C=C(C#N)C(=O)C(C)(C)[C@@H]4CC[C@@]3(C)[C@]1(C)CC2 [Compound T107] | 17.7 ± 6.9 nM | 7.07 ± 1.53 fold | 12.9 ± 1.5 nM | 1.17 ± 0.25 fold
